The record followed here is patent US5242945A, “Tetronic and thiotetronic acid derivatives as phospholipase A2 inhibitors” (American Home Products Corporation, priority 1991, dated 1993).

Assay [1] has as its target T1, human platelet PLA2 (Homo sapiens, UniProt P14555).
T1 construct: platelet acid extract PLA2; from tissue; host or cells: human platelets, semipurified acid extract
T1 sequence (P14555 21-144): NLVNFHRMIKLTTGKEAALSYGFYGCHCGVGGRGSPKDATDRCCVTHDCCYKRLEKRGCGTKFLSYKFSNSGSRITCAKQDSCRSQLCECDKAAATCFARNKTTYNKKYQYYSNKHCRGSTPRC
In words: in vitro isolated phospholipase A2 assay, human platelet PLA2. The settings on record: for inhibition at 10 µM / inhibition at 50 µM: read-out: % Inhibition HP (human platelet). Format: biochemical. The protocol:
(§1) The compounds of the invention are tested in an in vitro isolated phospholipase A2 assay to determine the ability of the test compounds to inhibit the release of arachidonic acid from an arachidonic acid-containing substrate by the action of phospholipase A2 enzyme from human and non-human sources.
(§2) Into a 15 mL polypropylene tube are added the following:
(§3) ^3 H-AA E. coli substrate^1
(§4) Tris-HCl (0.5 M) pH 7.5^3
(§5) PLA2 25 Volume yielding 12%
(§6) 100 hydrolysis in 10 min.
(§7) *pre-incubate at room temperature 30 min prior to substrate addition.
(§8) ^6 Two human PLA2 enzymes are used: a) Semipurified human
(§9) platelet acid extract PLA2 (in 10 mM sodium acetate buffer, pH 4.5).
(§10) Remove protein precipitate by centrifugation at about 2200 rpm for 10
(§11) minutes. b) Purified human synovial fluid.
(§12) Incubate the 100 μL reaction mixture for 10 minutes at 37° C. in a shaking water bath. The reaction is terminated by the addition of 2 mL tetrahydrofuran, followed by vortexing. NH2 columns (100 μg/mL--Analytichem International) are conditioned with 0.5 mL tetrahydrofuran followed by 0.5 mL tetrahydrofuran/water (2 mL:0.1 mL, v/v).
(§13) The sample is loaded onto the columns and slowly drawn through them. The hydrolyzed arachidonic acid retained in the columns is eluted therefrom with 1 mL tetrahydrofuran/glacial acetic acid (2%). The arachidonic acid is transferred to scintillation vials and quantitated by β-counting analysis. A "total counts" sample is prepared by pipetting 25 μL ^3 H-arachidonate E. coli directly into a scintillation vial to which is added 1 mL tetrahydrofuran. 10 mL aquasol (scintillation cocktail) is added to all samples.

The target in assay [2] is T2, human synovial fluid PLA2 (Homo sapiens, UniProt P14555).
T2 construct: Purified human synovial fluid; from tissue; host or cells: human synovial fluid
T2 sequence (P14555 21-144): T1 sequence (P14555 21-144)
In words: in vitro isolated phospholipase A2 assay, human synovial fluid PLA2. The settings on record: for inhibition at 10 µM / inhibition at 50 µM: read-out: % Inhibition HSF (human synovial fluid). The class given is biochemical. On the procedure:
as §1, §2, §3, §4, §5, §6, §7, §8, §9, §10, §11, §12, §13

Assay [3] concerns cyclooxygenase (PGE2). In words: resident murine peritoneal macrophage assay, PGE2. Format: cell-based, mouse (Swiss Webster). Conditions: Mus musculus, Peritoneal macrophage; reference compounds; 95% confidence limits on next line; read-out: IC50 PGE2. The protocol:
The ability of the compounds of the invention to act as inhibitors of the enzymes 5-lipoxygenase and cyclooxygenase is measured in the resident murine peritoneal macrophage assay.
Resident peritoneal macrophages are collected from female Swiss Webster mice (49 days old, 20-25 gms, Buckshire) by lavaging with 7-8 ml Hanks Balanced Salt Solution (HBSS) without Ca^++ and Mg^++ (GIBCO). The lavage fluid from several mice is pooled and centrifuged at 4° C. for 10 minutes at 400 xg. The cell pellet is resuspended in Medium 199 (GIBCO) with HEPES buffer containing 100 μg/ml gentamicin. Two ml of the cell suspension (4×10^6 cells) are then plated on 35 mm culture dishes (Nunc).
A macrophage monolayer is established after a 1-1.5 hour incubation of the cells at 37° C. in an atmosphere of […] and 5% CO2. The monolayers are washed 2× with 2 ml HBDSS, containing Ca^++ and Mg^++ after which 2 ml Medium 199 supplemented with 10% freshly thawed heat-inactivated fetal bovine serum and 100 μg/ml gentamicin is added for an overnight incubation.
Residual serum and cellular debris are removed from the monolayers by washing 3× with 2 ml HBSS containing Ca^++ and Mg^++. Macrophages are preincubated for 5 minutes with 1 ml serum-free M199 containing 10 μl dimethyl sulfoxide (DMSO) vehicle or test compound prior to cell activation with zymosan ([…]) or arachidonic acid (AA) (2 μM). After 2 hours, the supernatants are removed and either assayed for LTC4 and PGE2 by radioimmunoassay (RIA) directly or stored at -20° C. In all cases, results are expressed as ng metabolite/4×10^6 cells.
Raw data (dpm) may be stored directly onto an "Autostart" tape using the HP85 in room C-096. The raw data are converted to ng metabolite/4-10^6cells using the standard curve by a "RIANAL" program (HP85) or a "NONLIN" program (HP9816). Results are then expressed as percent inhibition of zymosan induced, leukotriene or prostaglandin synthesis (control) using the equation: [formula]

Where [4] appears, read: at 10 μM, + values given without explanation.

As to `CCCCCCCCCCCCCCCCCC(=O)C1=C(O)COC1=O` [Example 28, 4-Hydroxy-3-(1-oxooctadecyl)-2(5H)-furanone], the values for the inhibition at 10 µM in assay [1] (setting [4]) and in assay [2] (setting [4]) were 37.4% and 12.6%, respectively. Consider `O=C(CCCCCOc1ccc(Cl)cc1)C1=C(O)COC1=O` [Example 21, 4-Hydroxy-3-[6-(4-chlorophenoxy)-1-oxohexyl]-2(5H)-furanone], for which the inhibition at 10 µM in assay [1] (setting [4]) turned out to be 2.5%; in assay [2] (setting [4]) it was 24%. `CCCCCCOc1ccc(OCCCCCC(=O)C2=C(O)COC2=O)cc1` [Example 33, 4-Hydroxy-3-[6-[4-(hexyloxy)phenoxy]-1-oxohexyl]-2(5H)-furanone]: the inhibition at 10 µM was 37.1% in assay [1] (setting [4]) and 10% in assay [2] (setting [4]).

Consider `CCCCCCCCCCCCNC(=O)OCC(CCC(=O)O)OC(=O)NCCCCCCCCCCCC` (stereo not shown) [Example 31A, 4,5-Bis[[(Dodecylamino)carbonyl]oxy]pentanoic acid], for which the inhibition at 10 µM in assay [1] (setting [4]) is 47.7%; in assay [2] (setting [4]), 43.2%. Regarding `O=C(CCc1ccccc1)C1=C(O)COC1=O` [Example 2, 4-Hydroxy-3-(1-oxo-3-phenylpropyl)-2(5H)-furanone], the inhibition at 50 µM was determined as 8% in assay [1] and 27% in assay [2]. For the compound `CCCCCCCCC#CCCCCCCCC(=O)C1=C(O)COC1=O` [Example 27, 4-Hydroxy-3-(1-oxo-9-octadecynyl)-2(5H)-furanone], the inhibition at 10 µM in assay [1] (setting [4]) was 34.9%; in assay [2] (setting [4]), 31.2%. For the compound `O=C(CCCCCCCCOc1ccc(Cl)cc1)C1=C(O)COC1=O` [Example 29, 3-[9-(4-Chlorophenoxy)-1-oxononyl]-4-hydroxy-2(5H)-furanone], the inhibition at 10 µM in assay [1] (setting [4]) was 20.6%; in assay [2] (setting [4]) it was 33.6%.

For the compound `CCCCCCCC/C=C\CCCCCCCC(=O)OCC(CCC(=O)C1=C(O)COC1=O)OC(=O)CCCCCCC/C=C\CCCCCCCC` (stereo not shown) [Example 24, (Z)-9-Octadecanoic acid 5-(2,5-dihydro-4-hydroxy-3-furanyl)-5-oxo-1,2-pentanediyl ester], the inhibition at 10 µM was 56.6% in assay [1] (setting [4]) and 79.5% in assay [2] (setting [4]). For the compound `CCCCCCCCCCCCNC(=O)OCC(CCC(=O)C1=C(O)COC1=O)OC(=O)NCCCCCCCCCCCC` (stereo not shown) [Example 31, Dodecylcarbamic acid 5-(2,5-dihydro-4-hydroxy-2-oxo-3-furanyl)-5-oxo-1,2-pentanediyl ester], the inhibition at 10 µM in assay [1] (setting [4]) stood at 33.5%; in assay [2] (setting [4]), 34.5%.

For `COc1ccc(OC)c(/C=C/C(=O)C2=C(O)COC2=O)c1` [Example 13, (E)-3-(3-(2,5-Dimethoxyphenyl)-1-oxo-2-propenyl)-4-hydroxy-2 (5H)-furanone], the inhibition at 10 µM in assay [1] (setting [4]) was 11%; in assay [2] (setting [4]), 34%. Turning to `CCCCCCCC/C=C\CCCCCCCCNC(=O)OC(CCC(=O)O)COC/C=C(\C)CCC=C(C)C` (stereo not shown) [Example 40A, 5-[((E)-3,7-Dimethyl-2,6-octadienyl)oxy]-4-[[((Z)-9-octadecenylamino)carbonyl]oxy]pentanoic acid], the figures for the inhibition at 10 µM in assay [1] (setting [4]) and in assay [2] (setting [4]) were 87.7% and 74.2%, respectively. In the case of `CCCCCCCC/C=C\CCCCCCCC(=O)OCC(CCC(=O)O)OC(=O)CCCCCCC/C=C\CCCCCCCC` (stereo not shown) [Example 24A, 4,5-Bis[((Z)-1-oxo-9-octadecenyl)oxy]pentanoic acid], the inhibition at 10 µM amounted to 45.4% in assay [1] (setting [4]) and 80.7% in assay [2] (setting [4]).

`CCCCC[C@@H]1C[C@@H]1CC(=O)C1=C(O)COC1=O` (relative stereo) [Example 53, 4-Hydroxy-3-[(Z)-1-oxo-2-(2-pentylcyclopropy)ethyl]-2(5H)-furanone]: the values for the inhibition at 10 µM in assay [1] (setting [4]) and in assay [2] (setting [4]) were 1.7% and 0.1%, respectively.

`O=C(CCCc1c[nH]c2ccccc12)C1=C(O)COC1=O` [Example 5, 4-Hydroxy-3-[4-(1H-indol-3-yl)-1-oxobutyl]-2(5H)-furanone]: the inhibition at 50 µM in assay [1] amounted to 0%; in assay [2], 11%. In the case of `CCCCCCCC[C@@H]1C[C@@H]1CCCCCCCC(=O)C1=C(O)CSC1=O` (relative stereo) [Example 52, 4-Hydroxy-3-[(Z)-8-(2-octylcyclopropyl)-1-oxooctyl]-2(5H)-thiophenone], the results for the inhibition at 10 µM in assay [1] (setting [4]) and in assay [2] (setting [4]) were 8.4% and 18.6%, respectively. For the compound `O=C(/C=C/c1cccc(C(F)(F)F)c1)C1=C(O)COC1=O` [Example 10, (E)-4-Hydroxy-3-(1-oxo-3-(3-(trifluoromethyl)phenyl)-2-propenyl)-2 (5H)-furanone], the inhibition at 10 µM is 9.6% in assay [1] (setting [4]) and 34% in assay [2] (setting [4]). As for `O=C(CCCCCOc1ccc(OCc2ccc(Cl)cc2)cc1)C1=C(O)COC1=O` [Example 32, 4-Hydroxy-3-[6-[4-[(4-chlorophenyl)methoxyphenoxy]]1-oxohexyl]-2(5H)-furanone], the inhibition at 10 µM in assay [1] (setting [4]) is 31.6%; in assay [2] (setting [4]), 15.1%.

Consider `O=C(COCc1ccccc1)C1=C(O)COC1=O` [Example 3, 4-Hydroxy-3-[(phenylmethoxy)acetyl]-2(5H)-furanone], for which the inhibition at 50 µM in assay [1] stood at 3.5%; in assay [2] it was 25%. As for `O=C(CCc1c[nH]c2ccccc12)C1=C(O)COC1=O` [Example 4, 4-Hydroxy-3-[3-(1H-indol-3-yl)-1-oxopropyl]-2(5H)-furanone], the inhibition at 50 µM in assay [1] amounted to 10%; in assay [2], 25%. In the case of “4-Hydroxy-3-(1-oxoeicosanoyl)-2(5H)-furanone [Example 11]”, in assay [1] (setting [4]), the “% Inhibition HP (human platelet)” value is listed as 6.7%. The “% Inhibition HSF (human synovial fluid)” value in assay [2] (setting [4]) is 32%. Regarding `CCCCCCCC/C=C\CCCCCCCC(=O)C1=C(O)C(C)(C)OC1=O` [Example 17, (Z)-4-Hydroxy-5,5-dimethyl-3-(1-oxo-9-octadecenyl)-2(5H)-furanone], the inhibition at 10 µM in assay [1] (setting [4]) is 16%; in assay [2] (setting [4]), 9%. For `CCCCCCCc1ccc(OCCCCCC(=O)C2=C(O)COC2=O)cc1` [Example 37, 3-[6-(4-Heptylphenoxy)-1-oxohexyl]-4-hydroxy-2(5H)-furanone], the inhibition at 10 µM was 22.5% in assay [1] (setting [4]) and 35.7% in assay [2] (setting [4]). Consider `COc1ccc(/C=C/C(=O)C2=C(O)COC2=O)cc1OC` [Example 16, (E)-3-(3-(3,4-Dimethoxyphenyl)-1-oxo-2-propenyl)-4-hydroxy-2 (5H)-furanone], for which the inhibition at 10 µM in assay [1] (setting [4]) came to 2.1%; in assay [2] (setting [4]), 5.5%.

With `CCCCCC#CCC#CCC#CCC#CCCCC(=O)O` [ETYA, reference compound], the IC50 in assay [3] turned out to be 1.26 µM. `CCCCCCCC/C=C/CCCCCCCC(=O)C1=C(O)COC1=O` [Example 36, 4-Hydroxy-3-((E)-1-oxo-9-octadecenyl)-2(5H)-furanone]: the inhibition at 10 µM in assay [1] (setting [4]) was 25.4%; in assay [2] (setting [4]), 10.3%. For the compound `CC(C)(C)CC(C)(C)c1ccc(OCCCCCC(=O)C2=C(O)COC2=O)cc1` [Example 39], the values for the inhibition at 10 µM in assay [1] (setting [4]) and in assay [2] (setting [4]) were 24.4% and 20.3%, respectively.

Turning to `CC1=C(CC(=O)O)c2cc(F)ccc2/C1=C\c1ccc([S+](C)[O-])cc1` (stereo not shown) [sulindac, reference compound], the IC50 in assay [2] amounted to 30.2 µM.
